Where two headings read alike, the source gives them in different places. Where no end group is shown, it is not given here.
What was measured:
Human DPP3 variant R669A [1] = target: T1, Human DPP3 variant R669A (Homo sapiens, UniProt Q9NY33, R669A); test: Inhibition of DPP III catalyzed hydrolysis of Arg2-2NA, R669A variant; assay type: biochemical
T1 construct: made in house; host or cells: E. coli
T1 sequence (Q9NY33 1-737 R669A): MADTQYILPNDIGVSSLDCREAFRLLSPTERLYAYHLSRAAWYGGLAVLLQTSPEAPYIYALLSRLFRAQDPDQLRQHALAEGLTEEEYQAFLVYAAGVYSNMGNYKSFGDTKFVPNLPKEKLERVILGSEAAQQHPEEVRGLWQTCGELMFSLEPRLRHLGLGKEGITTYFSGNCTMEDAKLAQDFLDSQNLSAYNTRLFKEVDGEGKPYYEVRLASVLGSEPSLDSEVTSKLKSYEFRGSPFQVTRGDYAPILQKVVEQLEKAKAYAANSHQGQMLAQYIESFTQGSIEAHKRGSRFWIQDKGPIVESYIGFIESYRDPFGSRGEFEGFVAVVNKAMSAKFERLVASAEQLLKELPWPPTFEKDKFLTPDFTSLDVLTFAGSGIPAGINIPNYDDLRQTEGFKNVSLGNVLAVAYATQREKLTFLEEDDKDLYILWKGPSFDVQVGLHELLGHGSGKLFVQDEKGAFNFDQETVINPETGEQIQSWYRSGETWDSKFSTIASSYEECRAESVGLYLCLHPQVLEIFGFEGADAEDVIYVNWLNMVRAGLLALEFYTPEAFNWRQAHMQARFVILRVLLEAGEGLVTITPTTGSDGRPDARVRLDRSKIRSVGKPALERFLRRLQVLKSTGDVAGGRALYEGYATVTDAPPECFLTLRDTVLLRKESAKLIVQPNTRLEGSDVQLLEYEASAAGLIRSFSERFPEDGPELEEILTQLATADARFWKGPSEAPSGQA
Description: (§1) Human DPP3 wild-type (WT) and variants R669A and R669M were expressed in E. coli and purified using IMAC, as described in detail recently. Briefly, variants were prepared using a QuikChange II site-directed mutagenesis kit (Agilent Technologies, Santa Clara, CA, USA) while following the manufacturer’s instructions, with the hDPP3 gene on a pET21a plasmid as template. Complementary primer pairs were ordered from Macrogen Europe (The Netherlands) with the following sequences:
(§2) Proteins were expressed in E. coli for approximately 20 h at 18 °C, shaken at 120 rpm, and paired with 0.25 mM IPTG as an expression inductor. Cell pellets were lysed with lysosyme and with sonication; the lysate was then purified with DNAse I and through centrifugation, and affinity chromatography was performed on a Rotigarose His/Ni column. Lysis, wash, and elution buffers contained imidazole at concentrations of 10 mM, 20 mM, and 300 mM, respectively, and all buffers contained 50 mM Tris pH = 8.0, 300 mM NaCl. Fractions were pooled based on protein concentration (determined by using a BioDrop microvolume spectrophotometer) and purity (assessed by SDS-PAGE), and they were desalted on a PD-10 column with 20 mM Tris-Cl buffer, pH = 7.5. Aliquots were frozen and stored at −80 °C.
(§3) Enzyme kinetics were measured using an Agilent Cary Eclipse fluorescence spectrophotometer (Agilent Technologies, Santa Clara, CA, USA) with Arg2-2NA as a substrate analog and fluorescent 2NA as the product of the peptidase reaction. The assay has been described in detail previously. Arg2-2NA and peptide in 20 mM Tris-Cl buffer pH = 7.4 were pre-incubated at 25 °C for 2 min before the reaction was started by adding the enzyme into the cuvette. Substrate concentrations ranged from 0.25 to 100 μM. The peptide (inhibitor) concentrations were chosen so the output could be easily measured. […] Three peptide concentrations were used for each peptide. The enzyme concentration was 1 nM in all measurements.

Human DPP3 variant R669M [2] = target: T2, Human DPP3 variant R669M (Homo sapiens, UniProt Q9NY33, R669M); test: Inhibition of DPP III catalyzed hydrolysis of Arg2-2NA, R669M variant; assay type: biochemical
T2 construct: made in house; host or cells: E. coli
T2 sequence (Q9NY33 1-737 R669M): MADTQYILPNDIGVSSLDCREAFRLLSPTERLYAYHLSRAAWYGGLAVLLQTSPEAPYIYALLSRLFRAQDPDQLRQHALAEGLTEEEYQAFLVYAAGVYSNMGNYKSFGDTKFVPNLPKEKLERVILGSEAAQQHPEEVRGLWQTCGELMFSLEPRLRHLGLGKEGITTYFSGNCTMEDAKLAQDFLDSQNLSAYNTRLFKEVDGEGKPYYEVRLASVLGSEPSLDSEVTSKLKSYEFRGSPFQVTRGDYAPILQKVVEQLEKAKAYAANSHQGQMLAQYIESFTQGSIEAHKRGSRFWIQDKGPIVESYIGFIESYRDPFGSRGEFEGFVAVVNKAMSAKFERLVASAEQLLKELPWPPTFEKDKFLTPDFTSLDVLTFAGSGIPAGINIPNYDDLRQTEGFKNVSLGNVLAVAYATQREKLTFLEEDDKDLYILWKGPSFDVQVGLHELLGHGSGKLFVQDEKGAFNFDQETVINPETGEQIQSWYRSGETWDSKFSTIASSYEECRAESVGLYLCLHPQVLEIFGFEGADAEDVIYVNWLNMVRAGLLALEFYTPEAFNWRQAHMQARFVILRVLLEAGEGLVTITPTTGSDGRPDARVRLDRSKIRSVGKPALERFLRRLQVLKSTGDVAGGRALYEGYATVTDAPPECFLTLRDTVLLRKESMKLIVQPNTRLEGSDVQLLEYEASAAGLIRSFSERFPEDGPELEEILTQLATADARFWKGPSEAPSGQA
Description: as §1, §2, §3

[3] = target: T3, Human DPP3 wild-type (WT) (Homo sapiens, UniProt Q9NY33); test: Inhibition of DPP III catalyzed hydrolysis of Arg2-2NA, wild-type enzyme; assay type: biochemical
T3 construct: made in house; host or cells: E. coli
T3 sequence (Q9NY33 1-737): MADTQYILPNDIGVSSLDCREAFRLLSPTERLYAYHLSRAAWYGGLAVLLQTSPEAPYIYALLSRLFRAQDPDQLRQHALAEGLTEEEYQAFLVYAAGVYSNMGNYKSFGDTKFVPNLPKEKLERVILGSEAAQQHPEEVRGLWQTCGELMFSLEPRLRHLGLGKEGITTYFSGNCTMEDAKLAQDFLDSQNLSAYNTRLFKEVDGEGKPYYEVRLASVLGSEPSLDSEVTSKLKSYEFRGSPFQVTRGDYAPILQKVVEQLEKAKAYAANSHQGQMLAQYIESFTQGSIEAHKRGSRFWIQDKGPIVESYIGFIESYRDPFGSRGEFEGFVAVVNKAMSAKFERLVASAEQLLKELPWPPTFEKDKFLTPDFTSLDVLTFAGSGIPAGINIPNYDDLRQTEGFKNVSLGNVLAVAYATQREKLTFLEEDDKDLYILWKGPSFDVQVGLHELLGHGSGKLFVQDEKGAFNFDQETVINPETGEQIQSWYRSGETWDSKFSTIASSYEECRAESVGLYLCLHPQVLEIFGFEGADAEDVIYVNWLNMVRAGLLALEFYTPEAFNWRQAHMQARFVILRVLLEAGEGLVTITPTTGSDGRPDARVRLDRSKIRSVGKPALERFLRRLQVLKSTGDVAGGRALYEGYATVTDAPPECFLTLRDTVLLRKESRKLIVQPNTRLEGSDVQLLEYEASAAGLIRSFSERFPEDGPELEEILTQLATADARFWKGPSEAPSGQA
Description: as §1, §2, §3

Human DPP3 variant R669M [4] = target: T2, Human DPP3 variant R669M; test: Michaelis–Menten test for the hydrolysis of Arg2-2NA, R669M variant; assay type: biochemical; settings: enzyme 1 nM, 20 mM Tris-Cl pH 7.4, 25 °C, best fit ± standard error
Description: as §1
(§4) Proteins were expressed in E. coli for approximately 20 h at 18 °C, shaken at 120 rpm, and paired with 0.25 mM IPTG as an expression inductor. Cell pellets were lysed with lysosyme and with sonication; the lysate was then purified with DNAse I and through centrifugation, and affinity chromatography was performed on a Rotigarose His/Ni column. […] Fractions were pooled based on protein concentration (determined by using a BioDrop microvolume spectrophotometer) and purity (assessed by SDS-PAGE), and they were desalted on a PD-10 column with 20 mM Tris-Cl buffer, pH = 7.5. […]
(§5) Enzyme kinetics were measured using an Agilent Cary Eclipse fluorescence spectrophotometer (Agilent Technologies, Santa Clara, CA, USA) with Arg2-2NA as a substrate analog and fluorescent 2NA as the product of the peptidase reaction. […] The peptide (inhibitor) concentrations were chosen so the output could be easily measured. […]

[5] = target: T3, Human DPP3 wild-type (WT); test: Michaelis–Menten test for the hydrolysis of Arg2-2NA, wild-type enzyme; assay type: biochemical; settings: enzyme 1 nM, 20 mM Tris-Cl pH 7.4, 25 °C, best fit ± standard error
Description: as §1, §4, §5

Human DPP3 variant R669A [6] = target: T1, Human DPP3 variant R669A; test: Michaelis–Menten test for the hydrolysis of Arg2-2NA, R669A variant; assay type: biochemical; settings: enzyme 1 nM, 20 mM Tris-Cl pH 7.4, 25 °C, best fit ± standard error
Description: as §1, §4, §5

DPP III = settings: human renal epithelial cells; cited from earlier work
Source text: (§6) Dipeptidyl peptidase III (DPP III, EC 3.4.14.4) is a monozinc metallopeptidase that hydrolyzes dipeptides from the N-terminus of its substrates consisting of three or more amino acids. DPP III is the only member of the M49 metallopeptidase family and the only metalloenzyme among dipeptidyl peptidases. This two-domain exopeptidase is broadly distributed in human tissues, where it participates in the final stages of protein turnover.

human DPP III (hDPP III) = system: human DPP III (hDPP III); set-up: method as in 2 sources, one per row (each row's own in cited_ref): ref 17 = [17]; PMID 35163780; doi:10.3390/ijms23031858; 17. Tomić A. Tomić S. Demystifying DPP III Catalyzed Peptide Hydrolysis—Computational Study of the Complete Catalytic Cycle of Human DPP III Catalyzed Tynorphin Hydrolysis Int. J. Mol. Sci. 2022 23 18 ||| ref 18 = [18]; PMID 36116590; doi:10.1016/j.ijbiomac.2022.09.119; 18. Karačić Z. Šupljika F. Tomić A. Brkljačić L. Paić A.T. Ćehić M. Tomić S. Neuropeptides, Substrates and Inhibitors of Human Dipeptidyl Peptidase III, Experimental and Computational Study—A New Subs; settings: computational and experimental study of neuropeptides; cited from earlier work
Source text: Despite the efforts of numerous scientists, knowledge about the role that DPP III might play in various physiological processes is still unclear. […] In this and in QM/MM studies ...

[7] = system: angiotensin II-infused hypertensive mice; settings: cited from earlier work
Source text: as §6

[8] = substrate 0.25–100 μM, fluorescence of 2NA
[9] = R669M hDPP III 1 nM, substrate Arg2-2NA 0.25–100 μM, 20 mM Tris-Cl pH 7.4, 25 °C, 2 min pre-incubation, fluorescence of 2NA, competitive inhibition, best fit ± standard error, tynorphin 1–5 μM, valorphin 0.75–11.2 μM
[10] = WT hDPP III 1 nM, substrate Arg2-2NA 0.25–100 μM, 20 mM Tris-Cl pH 7.4, 25 °C, 2 min pre-incubation, fluorescence of 2NA, competitive inhibition, best fit ± standard error, inhibitor tynorphin 1–50 nM, valorphin 15–150 nM

CC(C)C[C@H](NC(=O)[C@H](Cc1ccccc1)NC(=O)CNC(=O)CNC(=O)[C@@H](N)Cc1ccc(O)cc1)C(=O)O [Leu-enkephalin]
Ki (Human DPP3 variant R669A [1]): 52000 ± 5300 nM
Ki (Human DPP3 variant R669M [2]): 58000 ± 7000 nM
effects of the R669M and R669A mutations on the Ki (Human DPP3 variant R669M [2]; R669M versus R669A): the same
Ki [3]: 10400 ± 1400 nM

Arg2-2NA
effect of mutation of R669 to Ala or Met on inhibitory properties / binding (Human DPP3 variant R669A [1]; R669A or R669M versus WT, inhibitory assays): small
kcat (Human DPP3 variant R669M [4]): 2.26 ± 0.03 s⁻¹
Km (Human DPP3 variant R669M [4]; [8]): 2.8 ± 0.2 µM
kcat [5]: 3.74 ± 0.07 s⁻¹
Km [5, 8]: 7.8 ± 0.6 µM
kcat (Human DPP3 variant R669A [6]): 2.24 ± 0.05 s⁻¹
Km (Human DPP3 variant R669A [6]; [8]): 3.4 ± 0.3 µM

VVYPW [tynorphin]
Ki (Human DPP3 variant R669A [1]): 328 ± 25 nM
Ki (Human DPP3 variant R669M [2]; [9]): 102 ± 16 nM
Ki [3, 10]: 11.2 ± 0.8 nM

VVYPWTQ [valorphin]
Ki (Human DPP3 variant R669A [1]): 1210 ± 224 nM
Ki (Human DPP3 variant R669M [2]; [9]): 406 ± 33 nM
Ki [3, 10]: 36.5 ± 2.9 nM

angiotensin (1–7): peptide degraded by DPP III in human renal epithelial cells (DRVYIHP; Angiotensin 1-7; UniProt P01019 25-31, looked up)
degradation by DPP III (DPP III): DPP III degrades angiotensin (1–7)

β-casomorphin
in vitro substrate identification / substrate class with hDPP III (human DPP III (hDPP III)): in vitro substrates of hDPP III

B1: DPP III: zinc exopeptidase (EC 3.4.14.4), M49 family (protein, UniProt Q9NY33 2-737, looked up)
Dipeptidyl peptidase 3: ADTQYILPNDIGVSSLDCREAFRLLSPTERLYAYHLSRAAWYGGLAVLLQTSPEAPYIYALLSRLFRAQDPDQLRQHALAEGLTEEEYQAFLVYAAGVYSNMGNYKSFGDTKFVPNLPKEKLERVILGSEAAQQHPEEVRGLWQTCGELMFSLEPRLRHLGLGKEGITTYFSGNCTMEDAKLAQDFLDSQNLSAYNTRLFKEVDGEGKPYYEVRLASVLGSEPSLDSEVTSKLKSYEFRGSPFQVTRGDYAPILQKVVEQLEKAKAYAANSHQGQMLAQYIESFTQGSIEAHKRGSRFWIQDKGPIVESYIGFIESYRDPFGSRGEFEGFVAVVNKAMSAKFERLVASAEQLLKELPWPPTFEKDKFLTPDFTSLDVLTFAGSGIPAGINIPNYDDLRQTEGFKNVSLGNVLAVAYATQREKLTFLEEDDKDLYILWKGPSFDVQVGLHELLGHGSGKLFVQDEKGAFNFDQETVINPETGEQIQSWYRSGETWDSKFSTIASSYEECRAESVGLYLCLHPQVLEIFGFEGADAEDVIYVNWLNMVRAGLLALEFYTPEAFNWRQAHMQARFVILRVLLEAGEGLVTITPTTGSDGRPDARVRLDRSKIRSVGKPALERFLRRLQVLKSTGDVAGGRALYEGYATVTDAPPECFLTLRDTVLLRKESRKLIVQPNTRLEGSDVQLLEYEASAAGLIRSFSERFPEDGPELEEILTQLATADARFWKGPSEAPSGQA
blood pressure [7]: lowering blood pressure

Source: article PMC9967118, “Influence of Mutations of Conserved Arginines on Neuropeptide Binding in the DPP III Active Site” (Molecules, 2023)
